In patent US20250042857A1, “SOS1 Inhibitor With Pyrido-Fused Six-Membered Ring Structure” (HAIHE BIOPHARMA CO., LTD., priority 2021, published 2025):
Where two headings read alike, the source gives them in different places.

What was measured:
KRAS-G12C/SOS1 = KRAS-G12C/SOS1 (Homo sapiens (Human), UniProt Q07889); test: Detection of inhibitory effects of compounds on KRAS-G12C/SOS1 (KRASG12C/SOS binding kit, HTRF); details: Em665/620, read-out: IC50, inhibitory activity on interaction of KRAS-G12C/SOS1
Outline: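 HTRF binding of Tag2-KRAS-G12C to Tag1-SOS1 with compounds (10-point 3-fold dilution from 5,000 nM) for 15 min at room temperature, then anti-Tag1-Tb and anti-Tag2-XL665 for 120 min at 4° C. Em665/620 read; inhibition normalised to control wells, IC50 from variable-slope log(inhibitor) fit.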

p-ERK of PC-9 cells = test: p-ERK HTRF assay in PC-9 cells; format: cell-based; details: PC-9 lung cancer cells, 1 hour treatment, read-out: IC50, inhibitory activity on p-ERK of PC-9 cells
Outline: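 PC-9 lung cancer cells plated overnight, then exposed 1 h at 37 °C to a 10-point compound series (10,000–[…] nM final, 0.1% DMSO). After 1 h lysis, phospho-ERK1/2 (Thr202/Tyr204) measured by HTRF at 665/615 nm. Percent inhibition calculated from max and min signals.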

Sequence of KRAS-G12C/SOS1 (Q07889 whole entry, stated change not applied): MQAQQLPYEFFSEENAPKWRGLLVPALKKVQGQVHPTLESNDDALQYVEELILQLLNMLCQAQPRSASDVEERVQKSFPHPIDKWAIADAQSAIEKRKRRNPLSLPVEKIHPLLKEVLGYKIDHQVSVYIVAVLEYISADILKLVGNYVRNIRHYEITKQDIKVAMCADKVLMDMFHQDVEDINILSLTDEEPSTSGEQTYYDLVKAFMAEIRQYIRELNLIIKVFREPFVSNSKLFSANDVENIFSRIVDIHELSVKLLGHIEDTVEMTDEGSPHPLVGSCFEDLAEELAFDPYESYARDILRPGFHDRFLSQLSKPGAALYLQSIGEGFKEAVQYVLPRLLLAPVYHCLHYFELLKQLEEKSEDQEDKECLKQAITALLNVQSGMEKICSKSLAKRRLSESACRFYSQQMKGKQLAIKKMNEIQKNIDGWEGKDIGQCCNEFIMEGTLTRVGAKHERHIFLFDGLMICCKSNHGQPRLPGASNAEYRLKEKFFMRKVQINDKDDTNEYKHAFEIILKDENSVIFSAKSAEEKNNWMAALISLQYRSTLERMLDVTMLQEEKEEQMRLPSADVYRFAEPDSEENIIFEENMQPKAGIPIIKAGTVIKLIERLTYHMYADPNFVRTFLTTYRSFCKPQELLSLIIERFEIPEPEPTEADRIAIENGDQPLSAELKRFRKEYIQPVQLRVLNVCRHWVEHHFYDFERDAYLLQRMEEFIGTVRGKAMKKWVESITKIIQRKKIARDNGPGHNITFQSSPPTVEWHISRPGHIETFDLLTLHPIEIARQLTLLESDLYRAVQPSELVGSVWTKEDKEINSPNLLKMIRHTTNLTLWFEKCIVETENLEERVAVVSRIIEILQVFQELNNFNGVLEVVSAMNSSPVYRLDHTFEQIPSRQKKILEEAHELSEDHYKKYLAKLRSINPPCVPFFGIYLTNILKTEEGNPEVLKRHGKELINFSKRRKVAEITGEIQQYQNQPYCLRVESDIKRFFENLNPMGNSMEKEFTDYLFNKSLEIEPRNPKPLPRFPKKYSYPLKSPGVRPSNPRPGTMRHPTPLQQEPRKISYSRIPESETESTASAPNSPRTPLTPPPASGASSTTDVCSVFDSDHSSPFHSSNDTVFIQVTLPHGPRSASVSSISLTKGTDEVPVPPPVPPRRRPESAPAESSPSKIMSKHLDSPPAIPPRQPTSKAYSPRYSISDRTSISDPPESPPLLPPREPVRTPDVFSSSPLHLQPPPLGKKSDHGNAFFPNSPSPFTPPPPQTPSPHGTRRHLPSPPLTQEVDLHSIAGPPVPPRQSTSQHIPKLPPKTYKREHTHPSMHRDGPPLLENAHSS

IC50 (KRAS-G12C/SOS1) [µM] | IC50 (p-ERK of PC-9 cells; Homo sapiens, PC-9, 1 h) [µM] | IC50 (p-ERK of PC-9 cells) [µM] | Structure (SMILES)
≤ 0.1 | 0.3 to 1 | – | C[C@@H](Nc1ccnc2cnc(C3(O)CCOCC3)cc12)c1cccc(C(F)F)c1F [Compound B-103]
≤ 0.1 | ≤ 0.3 | – | CC(=O)N1CCC(O)(c2cc3c(N[C@H](C)c4cccc(C(F)F)c4F)ccnc3cn2)CC1 [Compound B-17]
≤ 0.1 | ≤ 0.3 | – | C[C@@H](Nc1ccnc2cnc(C3(O)CCN(C(=O)C(C)(C)O)CC3)cc12)c1cccc(C(F)F)c1F [Compound B-121]
≤ 0.1 | 0.3 to 1 | – | C[C@@H](Nc1ccnc2cnc(N3CC[C@H](N)C3)cc12)c1cccc(C(F)F)c1F [Compound B-33]
≤ 0.1 | 0.3 to 1 | – | C[C@@H](Nc1ccnc2cnc(N3CCNCC3)cc12)c1cccc(C(F)F)c1F [Compound B-22]
≤ 0.1 | > 1 | – | C[C@@H](Nc1ccnc2cnc(C3(O)CCN(C(=O)[C@H]4C[C@H](O)CN4)CC3)cc12)c1cccc(C(F)F)c1F [Compound B-144]
≤ 0.1 | 0.3 to 1 | – | C[C@@H](Nc1ccnc2cnc(N3CCC(O)(CN)CC3)cc12)c1cccc(C(F)F)c1F [Compound B-75]
≤ 0.1 | ≤ 0.3 | – | C[C@@H](Nc1ccnc2cnc(C3(O)CCN(C(=O)C4COC4)CC3)cc12)c1cccc(C(F)F)c1F [Compound B-132]
≤ 0.1 | ≤ 0.3 | – | C[C@@H](Nc1ccnc2cnc(C3(O)CCN(C(=O)[C@@H]4CCOC4)CC3)cc12)c1cccc(C(F)F)c1F [Compound B-133]
≤ 0.1 | 0.3 to 1 | – | C[C@@H](Nc1ccnc2cnc(N3CCOCC3)cc12)c1cccc(C(F)F)c1F [Compound B-21]
≤ 0.1 | 0.3 to 1 | – | C[C@@H](Nc1ccnc2cnc(C3(O)CCC(N4CCNCC4)CC3)cc12)c1cccc(C(F)F)c1F (single isomer, unassigned) [Compound B-97-P2]
≤ 0.1 | 0.3 to 1 | – | C[C@@H](Nc1ccnc2cnc(C3(O)CCN(C(=O)C4CCOCC4)CC3)cc12)c1cccc(C(F)F)c1F [Compound B-135]
≤ 0.1 | 0.3 to 1 | – | Cc1nc(C2(O)CCC(O)CC2)cc2c(N[C@H](C)c3cccc(C(F)F)c3F)ccnc12 (stereo partly drawn) [Compound B-70]
≤ 0.1 | 0.3 to 1 | – | Cc1cc(N[C@H](C)c2cccc(C(F)F)c2F)c2cc(C3(O)CCC(O)CC3)ncc2n1 (single isomer, unassigned) [Compound B-88-P2]
≤ 0.1 | ≤ 0.3 | – | C[C@@H](Nc1ccnc2cnc(N3CCC(O)CC3)cc12)c1cccc(C(F)F)c1F [Compound B-24]
≤ 0.1 | 0.3 to 1 | – | Cc1nnc(N2CCC(O)(c3cc4c(N[C@H](C)c5cccc(C(F)F)c5F)ccnc4cn3)CC2)o1 [Compound B-153]
≤ 0.1 | ≤ 0.3 | – | C[C@@H](Nc1ccnc2cnc(C3(O)CCC(N(C)C)CC3)cc12)c1cccc(C(F)F)c1F (single isomer, unassigned) [Compound B-94-P2]
≤ 0.1 | 0.3 to 1 | – | C[C@@H](Nc1ccnc2cnc(C3(O)CCN(C(=O)c4ccccn4)CC3)cc12)c1cccc(C(F)F)c1F [Compound B-129]
≤ 0.1 | > 1 | – | C[C@@H](Nc1ccnc2cnc(C3(O)CCN(C(=O)[C@H]4C[C@@H](O)CN4C)CC3)cc12)c1cccc(C(F)F)c1F [Compound B-147]
≤ 0.1 | > 1 | – | CNCC(=O)N1CCC(O)(c2cc3c(N[C@H](C)c4cccc(C(F)F)c4F)ccnc3cn2)CC1 [Compound B-122]

The remaining lines, values behind:

Structure (SMILES) | IC50 (KRAS-G12C/SOS1) [µM] | IC50 (p-ERK of PC-9 cells; Homo sapiens, PC-9, 1 h) [µM] | IC50 (p-ERK of PC-9 cells) [µM]
C[C@H](O)C(=O)N1CCC(O)(c2cc3c(N[C@H](C)c4cccc(C(F)F)c4F)c(F)cnc3cn2)CC1 [Compound B-124] | ≤ 0.1 | ≤ 0.3 | –
C[C@@H](Nc1ccnc2cnc(C3(O)CCN(C4COCC4O)CC3)cc12)c1cccc(C(F)F)c1F (stereo partly drawn) [Compound B-152] | ≤ 0.1 | 0.3 to 1 | –
Cc1nc(N2CCCCS2(=O)=O)cc2c(N[C@H](C)c3cccc(C(F)F)c3F)ccnc12 [Compound B-65] | ≤ 0.1 | 0.3 to 1 | –
C[C@@H](Nc1ccnc2cnc(N3CCC(O)CC3=O)cc12)c1cccc(C(F)F)c1F (stereo partly drawn) [Compound B-54] | ≤ 0.1 | 0.3 to 1 | –
CC(=O)N1CCN(c2cc(F)c3nccc(N[C@H](C)c4cccc(C(F)F)c4F)c3c2)CC1 [Compound A-100] | ≤ 0.1 | ≤ 0.3 | –
CC(=O)N1CCN(c2cc3c(N[C@H](C)c4cccc(C(F)F)c4F)cc(C)nc3cn2)CC1 [Compound B-71] | ≤ 0.1 | ≤ 0.3 | –
C[C@@H](Nc1ccnc2cnc(C3(O)CCC(C(C)(C)O)CC3)cc12)c1cccc(C(F)(F)F)c1F (single isomer, unassigned) [Compound B-115-P2] | ≤ 0.1 | – | ≤ 0.3
CC(=O)N1CCC(c2cc(F)c3nccc(N[C@H](C)c4cccc(C(F)F)c4F)c3c2)CC1 [Compound A-99] | ≤ 0.1 | ≤ 0.3 | –
CC(=O)N1CCN(c2cc3c(N[C@H](C)c4cccc(C(F)F)c4F)ccnc3cn2)[C@@H](CO)C1 [Compound B-45] | ≤ 0.1 | ≤ 0.3 | –
COc1nc(C2(O)CCN(C(=O)CO)CC2)cc2c(N[C@H](C)c3cccc(C(F)F)c3F)ccnc12 [Compound B-173] | ≤ 0.1 | ≤ 0.3 | –
C[C@@H](Nc1ccnc2cnc(N3CCS(=O)(=O)CC3)cc12)c1cccc(C(F)F)c1F [Compound B-38] | ≤ 0.1 | ≤ 0.3 | –
CC(=O)N1CCC(c2cc3c(N[C@H](C)c4cccc(C(F)F)c4F)ccnc3cn2)C1 (stereo partly drawn) [Compound B-110] | ≤ 0.1 | ≤ 0.3 | –
CC(=O)N1CCC(O)(c2cc3c(N[C@H](C)c4cccc(C(F)F)c4F)ccnc3c(-c3cnn(C)c3)n2)CC1 [Compound B-170] | ≤ 0.1 | ≤ 0.3 | –
COc1c(N2CCN(C(C)=O)CC2)cc2c(N[C@H](C)c3cccc(C(F)F)c3F)ccnc2c1F [Compound A-102] | ≤ 0.1 | ≤ 0.3 | –
C[C@H](O)C(=O)N1CCC(O)(c2cc3c(N[C@H](C)c4cccc(C(F)(F)F)c4F)ccnc3cn2)CC1 [Compound B-126] | ≤ 0.1 | ≤ 0.3 | –
CC(=O)NC1CCN(c2cc3c(N[C@H](C)c4cccc(C(F)F)c4F)ccnc3cn2)CC1 [Compound B-37] | ≤ 0.1 | > 1 | –
COc1nc(C2(O)CCC(O)CC2)cc2c(N[C@H](C)c3cccc(C(F)F)c3F)ccnc12 (single isomer, unassigned) [Compound B-178-P2] | ≤ 0.1 | – | ≤ 0.3
Cc1nc(C2(O)CCN(C(=O)CO)CC2)cc2c(N[C@H](C)c3cccc(C(F)F)c3F)ccnc12 [Compound B-175] | ≤ 0.1 | ≤ 0.3 | –
C[C@@H](Nc1ccnc2c(-c3cnn(C)c3)nc(C3(O)CCN(C(=O)CO)CC3)cc12)c1cccc(C(F)F)c1F [Compound B-171] | ≤ 0.1 | ≤ 0.3 | –
Cc1cc(N[C@H](C)c2cccc(C(F)F)c2F)c2cc(N3CCCS3(=O)=O)ncc2n1 [Compound B-72] | ≤ 0.1 | 0.3 to 1 | –
CC(=O)N1CCC(O)(c2cc3c(N[C@H](C)c4cccc(C(F)(F)F)c4F)ccnc3cn2)CC1 [Compound B-112] | ≤ 0.1 | ≤ 0.3 | –
CC(=O)N1CCN(c2cc3c(N[C@H](C)c4cccc(C(F)F)c4F)ccnc3cn2)CC1CO (stereo partly drawn) [Compound B-44] | ≤ 0.1 | ≤ 0.3 | –
